Laboratory results: the supplement of paper PMC10331698
± gives the standard deviation of the averaged measurements.

Key:
Assay in all cases: level (log10 ratio to DMSO vehicle control); higher = higher biomarker level / cell amount than vehicle control
[1] = compound: FC(F)(F)C(F)(F)C(F)(F)C(F)(F)CCI [1H,1H,2H,2H-Perfluorohexyl iodide]; conditions: in DMSO
Protocol: (§1)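 BioMAP Diversity Plus panel of 12 human primary cell co-culture systems (3C, 4H, LPS, SAg, BT, BF4T, BE3C, CASM3C, HDF3CGF, KF3CT, MyoF, Mphg). Compounds were added 1 h before stimulation and left for 24 h (MyoF 48 h; BT 72 h for soluble read-outs or 6 d for IgG). Biomarkers were read by ELISA, cytotoxicity by SRB, PBMC viability and proliferation by Alamar Blue. Each well value was divided by the mean of 8 DMSO control wells on the same plate and log10 transformed; duplicate blinded samples were tested at 4 concentrations.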

[2] = compound: O=P(O)(O)CCC(F)(F)C(F)(F)C(F)(F)C(F)(F)C(F)(F)C(F)(F)F [2-(Perfluorohexyl)ethylphosphonic acid]; conditions: in DMSO
Protocol: as §1

[3] = compound: C=CC(=O)OCC(F)(F)C(F)(F)C(F)(F)C(F)(F)COC(=O)C=C [1H,1H,6H,6H-Perfluorohexane-1,6-diol diacrylate]; conditions: 6700 nM; in DMSO
Protocol: as §1

[4] = compound: CN(Cc1cnc2nc(N)nc(N)c2n1)c1ccc(C(=O)N[C@@H](CCC(=O)O)C(=O)O)cc1 [Methotrexate]; conditions: in DMSO
Protocol: as §1

[5] = compound: Cc1ccc(S(=O)(=O)OCC(F)(F)C(F)(F)C(F)(F)C(F)(F)C(F)(F)C(F)F)cc1 [1H,1H,7H-Perfluoroheptyl 4-methylbenzenesulfonate]; conditions: in DMSO
Protocol: as §1

[6] = compound: OCC(F)(F)C(F)(F)C(F)(F)C(F)(F)C(F)(F)C(F)(F)C(F)(F)C(F)(F)CO [1H,1H,10H,10H-Perfluorodecane-1,10-diol]; conditions: in DMSO
Protocol: as §1

[7] = compound: O=C(O)C(F)(F)C(F)(F)C(F)(F)C(F)(F)C(F)(F)C(F)(F)C(F)(F)F [Ammonium perfluorooctanoate]; conditions: in DMSO
Protocol: as §1

Test System | level (log10) ([1]; 6700 nM) | level (log10) ([1]; 20000 nM) | level (log10) ([1]; 60000 nM) | level (log10) ([2]; 6700 nM) | level (log10) ([2]; 20000 nM) | level (log10) ([2]; 60000 nM) | level (log10) [3] | level (log10) ([4]; 1500 nM) | level (log10) ([4]; 4400 nM) | level (log10) ([4]; 13000 nM) | level (log10) ([4]; 40000 nM) | level (log10) ([5]; 6700 nM) | level (log10) ([5]; 20000 nM) | level (log10) ([5]; 60000 nM) | level (log10) ([6]; 6700 nM) | level (log10) ([6]; 20000 nM) | level (log10) ([6]; 60000 nM) | level (log10) ([7]; 6700 nM) | level (log10) ([7]; 20000 nM) | level (log10) ([7]; 60000 nM)
3C:CD87/uPAR | 0.0035 ± 0.013 | -0.005 ± 0.0071 | 0.0085 ± 0.025 | 0.0365 ± 0.03 | 0.0125 ± 0.00071 | -0.0385 ± 0.0092 | 0.0105 ± 0.029 | 0.0005 ± 0.0092 | 0.001 ± 0.047 | 0.01 ± 0.071 | -0.0095 ± 0.013 | -0.018 ± 0.0014 | 0.004 ± 0.017 | -0.027 ± 0.024 | -0.063 ± 0.064 | -0.051 ± 0.075 | -0.165 | -0.007 ± 0.0042 | -0.0095 ± 0.013 | -0.056 ± 0.011
3C:CXCL8/IL-8 | -0.0135 ± 0.018 | -0.007 ± 0.014 | 0.0495 ± 0.00071 | -0.0115 ± 0.05 | -0.0035 ± 0.0021 | 0.0545 ± 0.03 | 0.017 ± 0.024 | 0.035 ± 0.016 | -0.0015 ± 0.059 | 0.0055 ± 0.023 | 0.042 ± 0.093 | -0.0075 ± 0.0021 | -0.0245 ± 0.0078 | -0.061 ± 0.017 | -0.013 ± 0.035 | -0.007 ± 0.024 | 0.03 | 0.0015 ± 0.0021 | 0.023 ± 0.027 | 0.085 ± 0.065
3C:CXCL9/MIG | 0.0045 ± 0.00071 | -0.0085 ± 0.005 | 0.007 ± 0.0057 | -0.004 ± 0.0071 | -0.003 ± 0.0014 | 0.01 ± 0.025 | 0.002 ± 0.0042 | 0.0075 ± 0.0092 | 0.001 ± 0.016 | -0.0015 ± 0.005 | 0.0145 ± 0.0064 | 0.005 ± 0.011 | -0.008 ± 0.0014 | -0.01 ± 0.0042 | -0.0145 ± 0.011 | -0.016 ± 0.0071 | -0.007 | -0.006 ± 0.02 | 0.002 ± 0.0099 | 0.0285 ± 0.013
3C:HLA-DR | -0.0005 ± 0.029 | -0.035 ± 0.04 | -0.0305 ± 0.04 | -0.0055 ± 0.012 | -0.0135 ± 0.00071 | -0.0085 ± 0.044 | -0.025 ± 0.011 | -0.014 ± 0.031 | -0.012 ± 0.038 | -0.013 ± 0.025 | -0.011 ± 0.03 | 0.0215 ± 0.016 | 0.0165 ± 0.0021 | 0.0085 ± 0.022 | -0.039 ± 0.02 | -0.031 ± 0.021 | -0.131 | -0.005 ± 0.0042 | 0 ± 0.0014 | 0.004 ± 0.016
3C:Proliferation | -0.0115 ± 0.0064 | -0.051 ± 0.064 | -0.047 ± 0.023 | -0.066 ± 0.057 | -0.035 ± 0.017 | -0.101 ± 0.081 | -0.307 ± 0.084 | 0.0185 ± 0.056 | 0.0495 ± 0.013 | 0.0285 ± 0.019 | -0.086 ± 0.04 | -0.02 ± 0.014 | -0.033 ± 0.014 | -0.12 ± 0.086 | -0.047 ± 0.068 | -0.0735 ± 0.06 | -0.403 | -0.001 ± 0.034 | 0.015 ± 0.0042 | -0.0635 ± 0.08
3C:SRB | 0.0005 ± 0.018 | 0.004 ± 0.013 | -0.006 ± 0.0028 | 0.0015 ± 0.032 | 0.0085 ± 0.015 | -0.006 ± 0.028 | -0.0015 ± 0.028 | 0.0055 ± 0.0035 | 0 ± 0.017 | 0.011 ± 0.028 | -0.0155 ± 0.0021 | 0.006 ± 0.0071 | -0.016 ± 0.013 | -0.125 ± 0.0042 | 0.01 ± 0.034 | -0.021 ± 0.033 | -0.106 | -0.0015 ± 0.012 | -0.014 ± 0.0042 | -0.05 ± 0.0099
4H:CCL2/MCP-1 | 0.0175 ± 0.021 | -0.008 ± 0.016 | 0.0195 ± 0.042 | -0.0295 ± 0.0092 | -0.031 ± 0.025 | -0.0215 ± 0.054 | -0.0235 ± 0.019 | -0.02 ± 0.011 | -0.035 ± 0.02 | -0.0215 ± 0.023 | 0.0105 ± 0.0021 | -0.0455 ± 0.023 | -0.098 ± 0.0071 | -0.178 ± 0.05 | -0.0685 ± 0.0064 | -0.105 ± 0.018 | -0.092 | -0.01 ± 0.0057 | -0.026 ± 0.0085 | -0.0475 ± 0.039
4H:CCL26/Eotaxin-3 | -0.0145 ± 0.032 | -0.06 ± 0.013 | -0.1 ± 0.0042 | -0.052 ± 0.09 | -0.0765 ± 0.066 | 0 ± 0.018 | -0.0435 ± 0.005 | -0.018 ± 0.0085 | -0.008 ± 0.011 | 0.014 ± 0.021 | -0.002 ± 0.014 | 0.007 ± 0.0057 | -0.0015 ± 0.013 | -0.057 ± 0.052 | -0.005 ± 0.037 | -0.0125 ± 0.035 | -0.179 | -0.005 ± 0.0028 | -0.013 ± 0.0057 | -0.0385 ± 0.028
4H:CD62P/P-selectin | -0.001 ± 0.011 | 0.023 ± 0.011 | 0.0135 ± 0.012 | 0.022 ± 0.0042 | -0.01 ± 0.017 | -0.0585 ± 0.021 | -0.104 ± 0.026 | -0.019 ± 0.0028 | -0.0195 ± 0.032 | -0.0045 ± 0.086 | -0.0055 ± 0.073 | 0.052 ± 0.033 | 0.002 ± 0.035 | 0.149 ± 0.012 | -0.029 ± 0.052 | -0.07 ± 0.083 | -0.169 | 0.0195 ± 0.012 | 0.043 ± 0.088 | 0.0515 ± 0.036
4H:CD87/uPAR | -0.0115 ± 0.0021 | -0.0245 ± 0.022 | -0.0255 ± 0.0064 | -0.0345 ± 0.018 | -0.0165 ± 0.015 | -0.0495 ± 0.011 | -0.04 ± 0.027 | 0.0245 ± 0.029 | -0.014 ± 0.031 | -0.0105 ± 0.033 | 0.0185 ± 0.03 | 0.005 ± 0.0071 | 0.011 ± 0.02 | -0.117 ± 0.032 | -0.057 ± 0.0099 | -0.083 ± 0.0042 | -0.097 | 0.0015 ± 0.028 | 0.026 ± 0.0057 | 0.034 ± 0.023
4H:CD106/VCAM-1 | 0.0045 ± 0.0021 | -0.0125 ± 0.0092 | -0.0525 ± 0.011 | 0.0205 ± 0.0064 | 0.025 ± 0.0085 | -0.01 ± 0.0028 | -0.057 ± 0.0057 | -0.0045 ± 0.018 | -0.0095 ± 0.0021 | 0.005 ± 0.028 | -0.0005 ± 0.011 | -0.0065 ± 0.0078 | -0.032 ± 0.013 | -0.0295 ± 0.011 | -0.0445 ± 0.011 | -0.049 ± 0.03 | -0.166 | 0.0225 ± 0.0021 | 0.036 ± 0.0085 | 0.0215 ± 0.026
4H:SRB | 0.0015 ± 0.0035 | -0.0045 ± 0.026 | 0.0005 ± 0.0078 | -0.005 ± 0.024 | -0.0065 ± 0.021 | -0.0005 ± 0.032 | -0.0075 ± 0.0035 | 0.0105 ± 0.0078 | -0.0075 ± 0.011 | 0.0035 ± 0.00071 | 0.007 ± 0.0014 | 0.0005 ± 0.026 | -0.002 ± 0.011 | -0.0605 ± 0.0078 | -0.0085 ± 0.011 | -0.026 ± 0.014 | -0.153 | -0.004 ± 0.011 | -0.0115 ± 0.005 | -0.0245 ± 0.0078
4H:VEGFR2 | -0.029 ± 0.065 | -0.058 | -0.0605 ± 0.043 | 0.0465 ± 0.015 | 0.0335 ± 0.0035 | -0.002 ± 0.027 | -0.0605 ± 0.00071 | -0.0035 ± 0.04 | -0.028 ± 0.035 | -0.014 ± 0.017 | 0.022 ± 0.0057 | 0.005 ± 0.018 | 0.017 ± 0.011 | 0.01 | -0.0455 ± 0.07 | -0.0125 ± 0.0092 | 0.055 | -0.0055 ± 0.0035 | -0.009 ± 0.0014 | -0.0455 ± 0.098
BE3C:CD54/ICAM-1 | 0.0035 ± 0.0035 | 0.004 ± 0.013 | 0.0105 ± 0.011 | -0.01 ± 0.0028 | -0.02 ± 0.021 | -0.0085 ± 0.03 | -0.021 ± 0.024 | 0.021 ± 0.014 | -0.002 ± 0.013 | 0.013 ± 0.031 | 0.0065 ± 0.035 | 0.014 ± 0.0057 | -0.023 ± 0.02 | -0.012 ± 0.0014 | 0.004 ± 0.0085 | -0.0305 ± 0.0064 | -0.232 | -0.01 ± 0.014 | -0.0085 ± 0.0021 | -0.0015 ± 0.015
